Reference: article PMC6271935, “Synthesis and Broad-Spectrum Antiviral Activity of Some Novel Benzo-Heterocyclic Amine Compounds” (Molecules, 2014)

How the values were obtained:
MDCK cells = assay: Cytotoxicity in MDCK cells (CPE); type: cell-based, Canine; details: 48 h, Reed & Muench
Description: (§1) The cytotoxicity of the compounds in MDCK, Vero and HepG2.2.15 cells was monitored via cytopathic effect (CPE) assays. The MDCK and Vero cells (2.5 × 10^4 /well) were plated in a 96-well plate. Following a 24 h hold period, the monolayer of cells was incubated in the presence of various concentrations of the test compounds. […] The TC50 value was calculated using Reed & Muench analysis.

Huh7.5 cells = assay: Cytotoxicity in Huh7.5 cells (MTT); type: cell-based, human; details: 96 h
Description: The Huh7.5 cells (1 × 10^4 cells/well) were plated in 96-well plates. Six hours later the culture media was replaced with fresh medium containing the test compounds at various concentrations. Cytotoxicity was evaluated with the 3-(4,5-dimethylthiazol-2-yl)-2,5-diphenyltetrazolium bromide (MTT) assay after 96 h.
Huh7.5 cells were seeded at a density of 3 × 10^4 cells/cm^2. After 24 h of incubation, the cells were infected with an HCV viral stock (approximately 45 IU per cell) and simultaneously treated with Telaprevir, the test compounds, or the solvent control. The culture medium was removed 96 h after inoculation, and the total intracellular RNA and total intracellular proteins were extracted with a Qiagen Kit according to the manufacturer’s instructions. Intracellular HCV RNA was quantified using a one-step real time RT-PCR kit (Invitrogen). Cytotoxicity was tested by the MTT assay, and IC50 values were calculated by the Reed and Muench methods.

Cox B3 = assay: organism not typed; type: cell-based, Coxsackie viruses (Cox B3 Nancy strain); details: Vero
HepG2.2.15 cells = assay: Cytotoxicity in HepG2.2.15 cells (CPE); type: cell-based, human; details: 3 + 3 days
Description: Cells were cultured for 3 days at 37 °C in a 5% CO2 atmosphere in an incubator, and the medium was replaced with fresh medium containing the test compounds for an additional 3 days. The cells were subsequently monitored by CPE and the TC50 value was calculated using Reed and Muench analysis.

HCV = assay: Anti-HCV assay in Huh7.5 cells, intracellular HCV RNA by real time RT-PCR; type: cell-based; details: Hepatitis C virus, 96 h
Vero cells = assay: Cytotoxicity in Vero cells (CPE); details: 48 h, Reed & Muench
Description: as §1

HBV = assay: Anti-HBV assay in HepG2.2.15 cells, viral DNA by real time PCR; type: cell-based, Hepatitis B virus; details: for IC50: Hepatitis B virus, HepG2.2.15, 144 h, intracellular viral DNA, 3 + 3 days
Description: The synthesized target compounds were assayed for their broad spectrum antiviral activity towards influenza A, HBV, HCV and Cox B3 virus in vitro. […] The inhibitory activities towards HBV and HCV were tested by real time PCR, and lamivudine (3TC) and teleprevir were used as positive controls, respectively.
The anti-HBV activities of test compounds and a positive control drug were tested in HepG2.2.15 cells. The HepG2.2.15 cells were cultured in 96-well plates and treated with the test compounds at 37 °C for 3 days. The medium was removed, and fresh medium containing the test compounds was added for an additional 3 days. The cells were harvested and intracellular DNA was extracted. The inhibition of viral DNA replication in treated cells versus untreated cells was determined by real time PCR.

[1] = test system: Influenza A/hanfang/359/95; assay: microbe, parasite or virus in culture; type: cell-based; details: Influenza A virus, MDCK

Compound	TC50 (50% cytotoxic concentration), Influenza A/hanfang/359/95 (MDCK cells) [µM]	TC50 (50% cytotoxic concentration), HCV (Huh7.5 cells) [µM]	IC50 (Cox B3) [µM]	TC50 (50% cytotoxic concentration), HBV (HepG2.2.15 cells) [µM]	IC50 (HCV) [µM]	TC50 (50% cytotoxic concentration), Cox B3 (Vero cells) [µM]	melting point [°C]	IC50 (HBV) [µM]	IC50 [1] [µM]	anti-HBV activity (in words) (HBV)
COc1cccc(CNc2ccc3ncsc3c2)c1O [3b, 2-(Benzothiazol-6-ylaminomethyl)-6-methoxyphenol]	55.95	126.59	5.66	57.74	38	67.23	206 to 208	> 33.3	10	
O=[N+]([O-])c1ccc(CNc2ccc3ncsc3c2)cc1 [3d, Benzothiazol-6-yl-(4-nitrobenzyl)-amine]	272.01	142.86	1.82	9.62	22.5	181.3		> 5.56	3.36	
C(=C\c1ccccc1)/CNc1ccc2ncsc2c1 [3e, (E)-benzothiazol-6-yl-(3-phenyl-allyl)-amine]	24.10	43.58	1.16	9.62	9.75	20.05	99 to 101	> 5.56	8.6	did not exhibit any activity
c1ncc(CNc2ccc3ncsc3c2)cn1 [3j, Benzothiazol-6-yl-pyrimidin-5-ylmethyl-amine]	826.44	>200	53	28.87	> 66.7	826.44	127 to 129	> 16.7	214	
Clc1ccc(CNc2ccc3cc[nH]c3c2)cc1 [1a, (4-Chlorobenzyl)-(1H-indol-6-yl)-amine]	3.35	15.88	4.79	8.02	1.4	8.34	135 to 137	1.44	> 1.6	
Cc1ccc(CNc2ccc3cc[nH]c3c2)s1 [1d, (1H-Indol-6-yl)-(5-methylthiophen-2-ylmethyl)-amine]	26.50		1.69	28.87		66.10	89 to 91	> 16.7	11.8	
C(=C\c1ccccc1)/CNc1ccc2nc[nH]c2c1 [4a, (E)-(3H-Benzoimidazol-5-yl)-(3-phenyl-allyl)-amine]	14.84	79.04	6.38		5.51	25.75			4.93	
O=[N+]([O-])c1cccc(CNc2ccc3ncsc3c2)c1 [3c, Benzothiazol-6-yl-(3-nitrobenzyl)-amine]	45.01		7.23			112.45	126 to 128		12.5	
c1csc(CNc2ccc3ncoc3c2)c1 [2d, Benzooxazol-6-yl-thiophen-2-ylmethylamine]	434.24	136.53	9.29		> 66.7	100.35	62 to 64		34.4	
C(=C\c1ccccc1)/CNc1ccc2cc[nH]c2c1 [1b, (E)-(1H-Indol-6-yl)-(3-phenylallyl)-amine]	2.86		2.86	3.21		8.61	130 to 132	> 1.85	> 1.65	
c1csc(CNc2ccc3ncsc3c2)c1 [3h, Benzothiazol-6-yl-thiophen-2-ylmethylamine]	78.14	153.72	10.4		47.6	65.03	148 to 150		6.58	
